# Measurements: patent publication US11926625B2, “HPK1 antagonists and uses thereof” (Nimbus Saturn, Inc., priority 2021, dated 2024)
# Biological target: T1, HPK1 (Homo sapiens, UniProt Q92918)
# T1 construct: purchased Invitrogen
# Assay: HPK1 biochemical enzyme assay (microfluidic mobility shift, Caliper)
# Conditions: 1.5 nM HPK1 (Invitrogen), 1 mM ATP, 30 min preincubation, 60 min at RT, top concentration 3 μM; read-out: HPK1 1000UMATP caliper IC50
# Experimental: Example 20. HPK1 Biochemical Enzyme Assay
# HPK1 biochemical enzyme assay: HPK1 enzyme inhibition was measured using a microfluidic mobility shift assay. Reactions were performed in a 384-well plate, containing 1.5 nM HPK1 (Invitrogen), in assay buffer (Cama Biosciences; pH 7.4). Test compounds were titrated in ten point curves (top final assay concentration 3 μM), and preincubated with enzyme/substrate mix for 30 min prior to initiation of the reaction by addition of ATP (1 mM final concentration) and substrate (1 μM final concentration; Carna Biosciences) diluted in assay buffer supplemented by MgCl2 (final assay concentration of 5 mM). Following 60 min incubation at RT, the reaction was terminated by addition of 60 μl/well termination buffer (Carna Biosciences) and signal determination using a Caliper EZ Reader (Perkin Elmer, UK).
# T1 sequence (Q92918 whole entry): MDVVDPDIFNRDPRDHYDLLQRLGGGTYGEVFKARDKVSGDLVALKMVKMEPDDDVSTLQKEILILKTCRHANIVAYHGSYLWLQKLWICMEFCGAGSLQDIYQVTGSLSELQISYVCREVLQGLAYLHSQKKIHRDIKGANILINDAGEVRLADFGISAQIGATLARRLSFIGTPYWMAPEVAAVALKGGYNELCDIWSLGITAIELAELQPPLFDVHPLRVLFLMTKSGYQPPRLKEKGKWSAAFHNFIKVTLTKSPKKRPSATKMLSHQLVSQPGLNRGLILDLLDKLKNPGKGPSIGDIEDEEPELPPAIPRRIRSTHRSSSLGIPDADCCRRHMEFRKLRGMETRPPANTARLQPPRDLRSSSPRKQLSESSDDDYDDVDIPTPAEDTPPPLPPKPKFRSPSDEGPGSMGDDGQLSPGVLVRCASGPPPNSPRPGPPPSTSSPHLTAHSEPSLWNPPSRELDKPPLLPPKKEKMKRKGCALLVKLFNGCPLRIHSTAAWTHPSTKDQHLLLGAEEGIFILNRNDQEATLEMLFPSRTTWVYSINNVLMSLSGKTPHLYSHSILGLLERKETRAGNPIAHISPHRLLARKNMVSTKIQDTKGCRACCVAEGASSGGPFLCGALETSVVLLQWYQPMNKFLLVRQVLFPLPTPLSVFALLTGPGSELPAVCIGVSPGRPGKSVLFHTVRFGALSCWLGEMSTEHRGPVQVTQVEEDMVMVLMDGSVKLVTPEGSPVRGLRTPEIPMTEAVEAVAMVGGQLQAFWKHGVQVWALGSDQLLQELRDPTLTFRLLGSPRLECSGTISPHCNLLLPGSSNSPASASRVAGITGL
row,Structure (SMILES),IC50
1,"COc1cccc(-c2ncc(Nc3ccc(N4CCNCC4)cn3)c3c2CNC3=O)c1OC [Compound I-20, 4-(2,3-dimethoxyphenyl)-7-[(5-piperazin-1-yl-2-pyridyl)amino]-2,3-dihydropyrrolo [3,4-c]pyridin-1-one]",1 to 5 µM
2,"COc1ccc(-c2ncc(Nc3ccc(N4CCNCC4)cn3)c3c2CNC3=O)cc1 [Compound I-6, 4-(4-methoxyphenyl)-7-[(5-piperazin-1-yl-2-pyridyl)amino]-2,3-dihydropyrrolo [3,4-c]pyridin-1-one]",1 to 5 µM
3,"O=C1NCc2c(C3CCOCC3)ncc(Nc3ccc(N4CCNCC4)cn3)c21 [Compound I-2, 7-[(5-piperazin-1-yl-2-pyridyl)amino]-4-tetrahydropyran-4-yl-2,3-dihydropyrrolo [3,4-c]pyridin-1-one]",1 to 5 µM
4,"CN1CCN(c2ccc(Nc3cnc(-c4ccnc(N(C)C)c4)c4c3C(=O)NC4)nc2)CC1 [Compound I-58, 4-(2-(dimethylamino)pyridin-4-yl)-7-((5-(4-methylpiperazin-1-yl)pyridin-2-yl)amino)-2,3-dihydro-1H-pyrrolo[3,4-c]pyridin-1-one]",1 to 5 µM
5,"Cc1cc(-c2ncc(Nc3ccc(N4CCNCC4)cn3)c3c2CNC3=O)ccn1 [Compound I-9, 4-(2-methyl-4-pyridyl)-7-[(5-piperazin-1-yl-2-pyridyl)amino]-2,3-dihydropyrrolo [3,4-c]pyridin-1-one]",1 to 5 µM
6,"Cc1cc(-c2ccc(Nc3ccc(N4CCN(C)CC4)cn3)c3c2CNC3=O)cc(=O)[nH]1 [Compound I-57, 4-(6-methyl-2-oxo-1,2-dihydropyridin-4-yl)-7-((5-(4-methylpiperazin-1-yl)pyridin-2-yl)amino) isoindolin-1-one]",< 1 µM
7,"CS(=O)(=O)c1ncc(Nc2ccc(N3CCNCC3)cn2)c2c1CNC2=O [Compound I-5, 4-methylsulfonyl-7-[(5-piperazin-1-yl-2-pyridyl)amino]-2,3-dihydropyrrolo [3,4-c]pyridin-1-one]",1 to 5 µM
8,CN1CCN(c2ccc(Nc3ccc(-c4ccncc4N4CC5CCC(C4)O5)c4c3C(=O)NC4)nc2)CC1 [Compound I-74],1 to 5 µM
9,"O=C1NCc2c(-c3ccncc3)ccc(Nc3cc(C4CCOC4)n[nH]3)c21 (stereo not drawn) [Compound I-36, 4-(4-pyridyl)-7-[(3-tetrahydrofuran-3-yl-1H-pyrazol-5-yl)amino] isoindolin-1-one]",< 1 µM
10,"O=C1NCc2c(-c3ccncc3)ncc(Nc3ccc(N4CCOCC4)cn3)c21 [Compound I-14, 7-[(5-morpholino-2-pyridyl)amino]-4-(4-pyridyl)-2,3-dihydropyrrolo [3,4-c]pyridin-1-one]",1 to 5 µM
11,"CNc1cc(-c2ccc(Nc3ccc(N4CCN(C)CC4)cn3)c3c2CNC3=O)ccn1 [Compound I-52, 4-[2-(methylamino)-4-pyridyl]-7-[[5-(4-methylpiperazin-1-yl)-2-pyridyl]amino] isoindolin-1-one]",< 1 µM
12,"CCc1cnc(N)nc1-c1ccc(Nc2ccc(N3CCN(C)CC3)cn2)c2c1CNC2=O [Compound I-86, 4-(2-amino-5-ethylpyrimidin-4-yl)-7-((5-(4-methylpiperazin-1-yl)pyridin-2-yl)amino) isoindolin-1-one]",1 to 5 µM
13,"CN1CCN(c2ccc(Nc3ccc(-c4ccnc(-c5c(F)cccc5F)c4)c4c3C(=O)NC4)nc2)CC1 [Compound I-40, 4-[2-(2,6-difluorophenyl)-4-pyridyl]-7-[[5-(4-methylpiperazin-1-yl)-2-pyridyl]amino] isoindolin-1-one]",1 to 5 µM
14,"CN1CCN(c2ccc(Nc3ccc(-c4ccnc(OCC(=O)N5CCCCC5)c4)c4c3C(=O)NC4)nc2)CC1 [Compound I-39, 7-[[5-(4-methylpiperazin-1-yl)-2-pyridyl]amino]-4-[2-[2-oxo-2-(1-piperidyl)ethoxy]-4-pyridyl] isoindolin-1-one]",< 1 µM
15,CCN1CCN(Cc2ccc(NC(=O)c3ccc(-c4ncc(Nc5ccc(N6CCN(C)CC6)cn5)c5c4CNC5=O)cc3)cc2C(F)(F)F)CC1 [Compound I-24],< 1 µM
16,CN1CCN(c2ccc(Nc3ccc(-c4ccnc(C5CCOC5)c4)c4c3C(=O)NC4)nc2)CC1 (stereo not drawn) [Compound I-76],1 to 5 µM
17,"Cn1cnc(-c2ccccc2)c1-c1ccc(Nc2ccc(N3CCNCC3)cn2)c2c1CNC2=O [Compound I-79, 4-(1-methyl-4-phenyl-1H-imidazol-5-yl)-7-((5-(piperazin-1-yl)pyridin-2-yl)amino) isoindolin-1-one]",< 1 µM
18,"CN1CCN(c2ccc(Nc3cnc(-c4cc[nH]c4)c4c3C(=O)NC4)nc2)CC1 [Compound I-23, 7-[[5-(4-methylpiperazin-1-yl)-2-pyridyl]amino]-4-(1H-pyrrol-3-yl)-2,3-dihydropyrrolo [3,4-c]pyridin-1-one]",< 1 µM
19,"CNc1cc(-c2ccc(Nc3ccc(N4CCN(C)CC4)cn3)c3c2CNC3=O)ncn1 [Compound I-48, 4-[6-(methylamino)pyrimidin-4-yl]-7-[[5-(4-methylpiperazin-1-yl)-2-pyridyl]amino] isoindolin-1-one]",< 1 µM
20,"CN1CCN(c2ccc(Nc3ccc(-c4ccnc(N5CC6CCC(C5)O6)n4)c4c3C(=O)NC4)nc2)CC1 [Compound I-82, 4-(2-(8-oxa-3-azabicyclo [3.2.1]octan-3-yl)pyrimidin-4-yl)-7-((5-(4-methylpiperazin-1-yl)pyridin-2-yl)amino) isoindolin-1-one]",1 to 5 µM
21,"CN1CCN(c2ccc(Nc3ccc(-c4ccnc(N5CCC6(CCNC6)CC5)c4)c4c3C(=O)NC4)nc2)CC1 [Compound I-42, 4-[2-(2,8-diazaspiro [4.5]decan-8-yl)-4-pyridyl]-7-[[5-(4-methylpiperazin-1-yl)-2-pyridyl]amino] isoindolin-1-one]",< 1 µM
22,"CN1CCN(c2ccc(Nc3ccc(-c4ccnc(OCC5CCC5)c4)c4c3C(=O)NC4)nc2)CC1 [Compound I-47, 4-[2-(cyclobutylmethoxy)-4-pyridyl]-7-[[5-(4-methylpiperazin-1-yl)-2-pyridyl]amino] isoindolin-1-one]",< 1 µM

# Other lines, results leading:
row,IC50,Structure (SMILES)
1,< 1 µM,"CNc1nccc(-c2ccc(Nc3ccc(N4CCN(C)CC4)cn3)c3c2CNC3=O)n1 [Compound I-49, 4-[2-(methylamino)pyrimidin-4-yl]-7-[[5-(4-methylpiperazin-1-yl)-2-pyridyl]amino] isoindolin-1-one]"
2,1 to 5 µM,"CC(=O)N1CCN(c2cc(-c3ccc(Nc4ccc(N5CCN(C)CC5)cn4)c4c3CNC4=O)ccn2)CC1 [Compound I-43, 4-[2-(4-acetylpiperazin-1-yl)-4-pyridyl]-7-[[5-(4-methylpiperazin-1-yl)-2-pyridyl]amino] isoindolin-1-one]"
3,< 1 µM,"Cn1c(-c2ccc(Nc3ccc(N4CCNCC4)cn3)c3c2CNC3=O)cnc1-c1ccccc1 [Compound I-78, 4-(1-methyl-2-phenyl-1H-imidazol-5-yl)-7-((5-(piperazin-1-yl)pyridin-2-yl)amino) isoindolin-1-one]"
4,1 to 5 µM,"CN1CCN(c2ccc(Nc3ccc(-c4ccnc(C5CCCOC5)c4)c4c3C(=O)NC4)nc2)CC1 (stereo not drawn) [Compound I-66, 7-((5-(4-methylpiperazin-1-yl)pyridin-2-yl)amino)-4-(2-(tetrahydro-2H-pyran-3-yl)pyridin-4-yl)isoindolin-1-one]"
5,< 1 µM,"CN1CCN(c2ccc(Nc3ccc(-c4cn[nH]c4)c4c3C(=O)NC4)nc2)CC1 [Compound I-84, 7-((5-(4-methylpiperazin-1-yl)pyridin-2-yl)amino)-4-(1H-pyrazol-4-yl)isoindolin-1-one]"
6,< 1 µM,Cc1cccc(C#Cc2cc(-c3ccc(Nc4ccc(N5CCN(C)CC5)cn4)c4c3CNC4=O)ccn2)c1 [Compound I-64]
7,1 to 5 µM,"O=C1NCc2c(Cc3ccccc3)ccc(Nc3ccc(N4CCNCC4)cn3)c21 [Compound I-83, 4-benzyl-7-((5-(piperazin-1-yl)pyridin-2-yl)amino) isoindolin-1-one]"
8,< 1 µM,"CNc1cc(-c2ncc(Nc3ccc(N4CCN(C)CC4)cn3)c3c2CNC3=O)ccn1 [Compound I-56, 4-(2-(methylamino)pyridin-4-yl)-7-((5-(4-methylpiperazin-1-yl)pyridin-2-yl)amino)-2,3-dihydro-1H-pyrrolo[3,4-c]pyridin-1-one]"
9,< 1 µM,"CN1CCN(c2ccc(Nc3ccc(-c4ccnnc4)c4c3C(=O)NC4)nc2)CC1 [Compound I-59, 7-((5-(4-methylpiperazin-1-yl)pyridin-2-yl)amino)-4-(pyridazin-4-yl)isoindolin-1-one]"
10,1 to 5 µM,"O=C1NCc2c(-c3c(F)cccc3F)ncc(Nc3ccc(N4CCNCC4)cn3)c21 [Compound I-3, 4-(2,6-difluorophenyl)-7-[(5-piperazin-1-yl-2-pyridyl)amino]-2,3-dihydropyrrolo [3,4-c]pyridin-1-one]"
11,< 1 µM,"O=C1NCc2c(-c3ccncc3)ccc(Nc3ccc(N4CCC(O)CC4)cn3)c21 [Compound I-28, 7-[[5-(4-hydroxy-1-piperidyl)-2-pyridyl]amino]-4-(4-pyridyl) isoindolin-1-one]"
12,1 to 5 µM,"CN1CCN(c2ccc(Nc3ccc(-c4ccnc(C5CCOCC5)c4)c4c3C(=O)NC4)nc2)CC1 [Compound I-44, 7-[[5-(4-methylpiperazin-1-yl)-2-pyridyl]amino]-4-(2-tetrahydropyran-4-yl-4-pyridyl) isoindolin-1-one]"
13,1 to 5 µM,"O=C1NCc2c(-c3ccccn3)ncc(Nc3ccc(N4CCNCC4)cn3)c21 [Compound I-4, 7-[(5-piperazin-1-yl-2-pyridyl)amino]-4-(2-pyridyl)-2,3-dihydropyrrolo [3,4-c]pyridin-1-one]"
14,< 1 µM,"Cn1cncc1-c1ccc(Nc2ccc(N3CCNCC3)cn2)c2c1CNC2=O [Compound I-71, 4-(1-methyl-1H-imidazol-5-yl)-7-((5-(piperazin-1-yl)pyridin-2-yl)amino) isoindolin-1-one]"
